Experimental data: PMC3942692, “Mitochondrial FAD-linked Glycerol-3-phosphate Dehydrogenase: A Target for Cancer Therapeutics” (Pharmaceuticals, 2014)

Biological target: T1, GPD2 (mitochondrial glycerol-3-phosphate dehydrogenase) (Homo sapiens, UniProt P43304)
T1 construct: aa 43-727 (mitochondrial transit peptide removed), N-terminal Strep-tag II, expressed in E. coli GJ1158, Strep-Tactin purified; cDNA from PC-3 cells; EC 1.1.5.3
T1 sequence (P43304 43-727): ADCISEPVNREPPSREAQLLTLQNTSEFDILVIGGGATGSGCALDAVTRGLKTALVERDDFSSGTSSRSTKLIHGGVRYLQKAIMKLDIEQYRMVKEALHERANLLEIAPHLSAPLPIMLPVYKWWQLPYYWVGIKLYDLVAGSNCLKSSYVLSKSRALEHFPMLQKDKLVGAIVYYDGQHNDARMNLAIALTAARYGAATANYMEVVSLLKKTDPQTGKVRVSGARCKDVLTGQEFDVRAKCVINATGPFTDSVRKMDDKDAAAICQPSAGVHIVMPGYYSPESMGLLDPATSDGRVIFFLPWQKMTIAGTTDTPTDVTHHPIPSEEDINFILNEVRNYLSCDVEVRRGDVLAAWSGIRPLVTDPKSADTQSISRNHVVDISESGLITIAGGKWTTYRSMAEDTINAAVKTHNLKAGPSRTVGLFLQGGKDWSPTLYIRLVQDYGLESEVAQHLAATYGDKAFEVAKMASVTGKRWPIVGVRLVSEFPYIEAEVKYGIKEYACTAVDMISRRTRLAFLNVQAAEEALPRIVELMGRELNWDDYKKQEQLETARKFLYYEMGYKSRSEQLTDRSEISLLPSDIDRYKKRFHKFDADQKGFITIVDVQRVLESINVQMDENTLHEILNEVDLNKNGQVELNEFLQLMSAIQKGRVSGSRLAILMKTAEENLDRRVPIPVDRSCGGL
Test: GPD2 oxidoreductase, resazurin reduction fluorescence
Format: biochemical
Settings: 30 mM glycerol-3-phosphate
Text: GPD2 oxidoreductase, resazurin reduction fluorescence on GPD2 (mitochondrial glycerol-3-phosphate dehydrogenase) | six GPD2 activity inhibitors selected for follow-up analysis are shown

Row | EC50 [µM] | Compound
1 | 28 ± 13.9 | RH02211
2 | 1.23 ± 0.54 | CCOC(=O)c1ccc(-n2sccc2=O)cc1 [KM04416]
